Measured values: patent publication US20100256179A1, “COMBINATION THERAPY FOR PAIN IN PAINFUL DIABETIC NEUROPATHY” (UCB PHARMA GMBH, priority 2004, published 2010)

System: formalin-induced flinching and licking response of the affected paw
Assay: rat formalin paw test (late phase)
Format: in vivo
Protocol: Rats were given an intraplantar injection of 5% formalin (50 μl) into the posterior left paw. This treatment induces a recognizable flinching and licking response of the affected paw in control animals. The number of flinches was counted for 15 minutes, beginning 20 minutes after injection of formalin. The time spent licking the affected paw was also recorded.
Male Rj: Wistar (Han) rats, 10 per group, weighing 100-130 g at the beginning of the experiments were studied per group. The test was performed blind.

[1] = Example 5, memantine 4 mg/kg i.p.
[2] = Example 5, memantine 8 mg/kg i.p.
[3] = Example 3, morphine 2 mg/kg i.p.
[4] = Example 3, morphine 4 mg/kg i.p.

For `CC12CC3CC(C)(C1)CC(N)(C3)C2` [Memantine], the “Licking time % change (a): compared with vehicle control” value (shortened to “Licking time % change”) [1] was “+25% (a)”, the “Licking time (seconds) mean ± SEM” value [1] was 219.9 ± 21.8 s and the “No. of flinches % change (a): compared with vehicle control” value (“No. of flinches % change” for short) [1] was −3% (a). For the same molecule, the “No. of flinches mean ± SEM” value [1] was 161.4 ± 26.3, the “Licking time % change” value [2] was “+35% (a)” and the “Licking time (seconds) mean ± SEM” value [2] was 237.3 ± 18.9 s. For the same molecule, the “No. of flinches % change” value [2] was −20% (a), the “No. of flinches mean ± SEM” value [2] was 132.3 ± 24.6 and the “increase in time spent licking” value (Example 5, memantine alone at 4 mg/kg, p=0.0537) was 25%. For the same molecule, the “increase in time spent licking” value (Example 5, memantine alone at 8 mg/kg, p<0.05) was 35% and the “number of flinches as compared with vehicle controls” value (Example 5, memantine alone at 4 and 8 mg/kg) was “did not clearly affect”.
In the case of `CN1CC[C@]23c4c5ccc(O)c4O[C@H]2[C@@H](O)C=C[C@H]3[C@H]1C5` [Morphine], the “Licking time % change” value [3] was −1% (a), the “Licking time (seconds) mean ± SEM” value [3] was 289.3 ± 30.7 s and the “No. of flinches % change” value [3] was −7% (a). The “No. of flinches mean ± SEM” value [3] was 139.5 ± 25.3, the “Licking time % change” value [4] was −20% (a) and the “Licking time (seconds) mean ± SEM” value [4] was 234.9 ± 37.3 s. For the same molecule, the “No. of flinches % change” value [4] was −37% (a), the “No. of flinches mean ± SEM” value [4] was 94.3 ± 21.1 and the “number of flinches and time spent licking as compared with vehicle controls” value (Example 3, morphine alone at 2 and 4 mg/kg, effects did not reach statistical significance) was “dose-dependently decreased”.
